Read-outs that look alike come from different tables or passages of the source.
Legend:
MV-4-11 cells = assay: Cell viability in MV-4-11 cells (CellTiter Glo2); type: cell-based; conditions: Homo sapiens, MV4-11, 96 h, 8-point dose response, 4 days
Procedure: Approximately 10,000 MV-4-11 cells per well of a 96-well plate were treated with DMSO (no drug control) or each compound in Tables E1 and E2 in an 8-point dose response for 4 days, Cell viability was measured using CellTiter Glo2. The ICse of each compound was determined using CDD Vault.

NAMPT = molecular target: T1, NAMPT (Homo sapiens, UniProt P43490); assay: NAMPT Activity Assay (Abcam #ab221819); type: biochemical; conditions: purified NAMPT, two-step reaction, OD450 nm; percent inhibition vs no drug; compound concentration not stated
T1 construct: purchased Abcam ab221819
T1 sequence (P43490 whole entry): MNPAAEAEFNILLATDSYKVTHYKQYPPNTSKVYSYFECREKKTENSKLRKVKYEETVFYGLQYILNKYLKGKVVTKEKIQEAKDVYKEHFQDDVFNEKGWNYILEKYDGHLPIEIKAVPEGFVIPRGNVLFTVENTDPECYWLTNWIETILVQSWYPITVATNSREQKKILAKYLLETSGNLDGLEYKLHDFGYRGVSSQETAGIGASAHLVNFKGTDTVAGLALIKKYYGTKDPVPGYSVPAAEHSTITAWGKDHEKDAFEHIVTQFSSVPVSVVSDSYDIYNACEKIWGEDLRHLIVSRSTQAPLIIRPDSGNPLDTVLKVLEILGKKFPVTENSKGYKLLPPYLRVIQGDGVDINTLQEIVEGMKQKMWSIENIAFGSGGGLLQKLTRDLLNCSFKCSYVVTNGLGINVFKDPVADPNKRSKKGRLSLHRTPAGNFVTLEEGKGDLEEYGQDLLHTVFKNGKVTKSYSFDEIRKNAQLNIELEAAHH

[1] = CellTiter Glo2 (Table E2), read-out: MV-4-11 Cell Viability, MV-4-11 IC50
[2] = CellTiter Glo2 (Table E1), read-out: MV-4-11 IC50

| SMILES | IC50 (MV-4-11 cells; [1]) [nM] | NAMPT Inhibition Code (NAMPT) | IC50 (MV-4-11 cells; [2]) [nM] |
| --- | --- | --- | --- |
| CC(=O)N(C)c1ccc(-c2ccc(C(=O)NCc3cccnc3C)cn2)cc1C(F)(F)F [Compound I-455, 6-[4-[acetyl(methyl)amino]-3-(trifluoromethyl)phenyl]-N-[(2-methyl-3-pyridyl)methyl]pyridine-3-carboxamide] | 3470 | A (A = <33% inhibition) |  |
| CC(=O)N(CC1COC1)c1ccc(-c2ccc(C(=O)NCc3cccnc3)cn2)cc1Cl [Compound I-620, 6-[4-[Acetyl(oxetan-3-ylmethyl)amino]-3-chloro-phenyl]-N-(3-pyridylmethyl)pyridine-3-carboxamide] | 8.11 | C (C = ≥66% inhibition) |  |
| CCC(=O)N(C)c1ccc(-c2ccc(C(=O)Nc3cccnc3)cn2)cc1 [Compound I-353, 6-[4-[methyl(propanoyl)amino]phenyl]-N-(3-pyridyl)pyridine-3-carboxamide] |  | C (C = ≥66% inhibition) | 941 |
| Cc1cc(-c2ccc(C(=O)NCc3cccnc3)cn2)ccc1N(C)C(=O)CCN [Compound I-593, 6-[4-[3-aminopropanoyl(methyl)amino]-3-methyl-phenyl]-N-(3-pyridylmethyl)pyridine-3-carboxamide] | 1470 | A (A = <33% inhibition) |  |
| CC(=O)N(CC(C)C)c1ccc(-c2ccc(C(=O)NCc3cccnc3)cn2)cc1Cl [Compound I-599, 6-[4-[Acetyl(isobutyl)amino]-3-chloro-phenyl]-N-(3-pyridylmethyl)pyridine-3-carboxamide] | 3.28 | C (C = ≥66% inhibition) |  |
| CC(=O)N(CC1COC1)c1ccc(-c2ccc(C(=O)NCc3cccnc3)cn2)cc1C [Compound I-610, 6-[4-[Acetyl(oxetan-3-ylmethyl)amino]-3-methyl-phenyl]-N-(3-pyridylmethyl)pyridine-3-carboxamide] | 37 | B (B = ≥33 to <66% inhibition) |  |
| CC(=O)N(CCC(F)F)c1ccc(-c2ccc(C(=O)NCc3cccnc3)cn2)cc1 [Compound I-629, 6-[4-[Acetyl(3,3-difluoropropyl)amino]phenyl]-N-(3-pyridylmethyl)pyridine-3-carboxamide] | 358 | B (B = ≥33 to <66% inhibition) |  |
| CCC(=O)N(CCN)c1ccc(-c2ccc(C(=O)NCc3cccnc3)cn2)cc1C [Compound I-502, 6-[4-[2-aminoethyl(propanoyl)amino]-3-methyl-phenyl]-N-(3-pyridylmethyl)pyridine-3-carboxamide] | 224 | A (A = <33% inhibition) |  |
| CC(=O)Nc1ccc(-c2ccc(C(=O)N(C)Cc3cccnc3C)cn2)cc1C#N [Compound I-483, 6-(4-Acetamido-3-cyano-phenyl)-N-methyl-N-[(2-methyl-3-pyridyl)methyl]pyridine-3-carboxamide] | > 30000 | A (A = <33% inhibition) |  |
| CC(=O)N(C)c1ccc(-c2ccc(C(=O)NCc3cccnc3)cn2)cc1C [Compound I-425, 6-[4-[acetyl(methyl)amino]-3-methyl-phenyl]-N-(3-pyridylmethyl)pyridine-3-carboxamide] |  | A (A = <33% inhibition) | 1670 |
| CCCN(C(=O)CC)c1ccc(-c2ccc(C(=O)NCc3cccnc3)cn2)cc1 [Compound I-410, 6-[4-[propanoyl(propyl)amino]phenyl]-N-(3-pyridylmethyl)pyridine-3-carboxamide] |  | B (B = ≥33 to <66% inhibition) | 119 |
| COC(=O)c1cc(-c2ccc(C(=O)NCc3cccnc3C)cn2)ccc1N(C)C(C)=O [Compound I-457, methyl 2-[acetyl(methyl)amino]-5-[5-[(2-methyl-3-pyridyl)methylcarbamoyl]-2-pyridyl]benzoate] | 9850 | A (A = <33% inhibition) |  |
| CC(=O)N(C)c1ccc(-c2ccc(C(=O)NCc3cccnc3)cn2)cc1C#N [Compound I-663, 6-[4-[Acetyl(methyl)amino]-3-cyano-phenyl]-N-(3-pyridylmethyl)pyridine-3-carboxamide] | 1700 | B (B = ≥33 to <66% inhibition) |  |
